Experimental data: ChEMBL document CHEMBL5236635, “Structure-Based Drug Design and Synthesis of Novel N-Aryl-2,4-bithiazole-2-amine CYP1B1-Selective Inhibitors in Overcoming Taxol Resistance in A549 Cells” (J Med Chem, 2022)
The source made the active and inactive calls. The calls are words filed in the database; no cut-off is given here.

How the values were obtained:
CYP1B1 = molecular target: T1, CYP1B1 (Homo sapiens, UniProt Q16678); test: Inhibition of recombinant human CYP1B1 assessed as inhibition ratio at 100 nM using 7-ethyl-0-resorufin as substrate incubated for 30 mins in presence of NADPH by EROD assay relative to control; settings: recombinant human CYP1B1, probe 7-ethyl-0-resorufin
T1 sequence (Q16678 whole entry): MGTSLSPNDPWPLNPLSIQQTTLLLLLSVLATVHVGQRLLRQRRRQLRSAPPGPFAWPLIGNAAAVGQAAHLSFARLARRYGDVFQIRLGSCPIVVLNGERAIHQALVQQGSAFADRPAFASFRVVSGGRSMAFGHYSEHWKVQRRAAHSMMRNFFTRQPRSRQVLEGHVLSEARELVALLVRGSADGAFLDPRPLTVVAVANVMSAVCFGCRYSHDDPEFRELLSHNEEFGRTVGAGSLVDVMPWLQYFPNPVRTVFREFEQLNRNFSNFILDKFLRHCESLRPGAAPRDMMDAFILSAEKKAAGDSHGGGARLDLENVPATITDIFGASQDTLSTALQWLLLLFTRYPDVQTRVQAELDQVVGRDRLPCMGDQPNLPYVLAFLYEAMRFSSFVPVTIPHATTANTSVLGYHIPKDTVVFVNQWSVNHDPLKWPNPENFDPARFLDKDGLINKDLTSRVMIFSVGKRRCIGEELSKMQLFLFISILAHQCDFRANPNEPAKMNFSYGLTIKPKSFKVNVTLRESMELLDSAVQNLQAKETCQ

Cytochrome P450 1B1 [1] = molecular target: T2, Cytochrome P450 1B1 (Homo sapiens, UniProt Q16678); test: Inhibition of recombinant human CYP1B1 using 7-ethyl-0-resorufin as substrate incubated for 30 mins in presence of NADPH by EROD assay
T2 sequence (Q16678 whole entry): T1 sequence (Q16678 whole entry)

Cytochrome P450 1A1 [2] = molecular target: T3, Cytochrome P450 1A1 (Homo sapiens, UniProt P04798); test: Inhibition of recombinant human CYP1A1 using 7-ethyl-0-resorufin as substrate incubated for 30 mins in presence of NADPH by EROD assay
T3 sequence (P04798 whole entry): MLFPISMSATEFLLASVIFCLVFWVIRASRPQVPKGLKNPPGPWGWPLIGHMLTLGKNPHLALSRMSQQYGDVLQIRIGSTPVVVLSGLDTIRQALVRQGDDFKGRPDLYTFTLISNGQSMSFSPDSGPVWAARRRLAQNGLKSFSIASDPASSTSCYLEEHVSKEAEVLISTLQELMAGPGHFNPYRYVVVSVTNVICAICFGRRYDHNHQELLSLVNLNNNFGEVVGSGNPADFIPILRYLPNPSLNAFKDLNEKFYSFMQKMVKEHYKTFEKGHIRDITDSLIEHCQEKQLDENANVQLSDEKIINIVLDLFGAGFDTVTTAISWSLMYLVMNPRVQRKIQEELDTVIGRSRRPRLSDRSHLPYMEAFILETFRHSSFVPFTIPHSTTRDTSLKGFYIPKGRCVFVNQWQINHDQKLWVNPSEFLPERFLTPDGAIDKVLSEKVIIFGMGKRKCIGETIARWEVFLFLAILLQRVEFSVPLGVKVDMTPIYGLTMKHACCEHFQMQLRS

Cytochrome P450 1A2 [3] = molecular target: T4, Cytochrome P450 1A2 (Homo sapiens, UniProt P05177); test: Inhibition of recombinant human CYP1A2 using 7-ethyl-0-resorufin as substrate incubated for 30 mins in presence of NADPH by EROD assay
T4 sequence (P05177 whole entry): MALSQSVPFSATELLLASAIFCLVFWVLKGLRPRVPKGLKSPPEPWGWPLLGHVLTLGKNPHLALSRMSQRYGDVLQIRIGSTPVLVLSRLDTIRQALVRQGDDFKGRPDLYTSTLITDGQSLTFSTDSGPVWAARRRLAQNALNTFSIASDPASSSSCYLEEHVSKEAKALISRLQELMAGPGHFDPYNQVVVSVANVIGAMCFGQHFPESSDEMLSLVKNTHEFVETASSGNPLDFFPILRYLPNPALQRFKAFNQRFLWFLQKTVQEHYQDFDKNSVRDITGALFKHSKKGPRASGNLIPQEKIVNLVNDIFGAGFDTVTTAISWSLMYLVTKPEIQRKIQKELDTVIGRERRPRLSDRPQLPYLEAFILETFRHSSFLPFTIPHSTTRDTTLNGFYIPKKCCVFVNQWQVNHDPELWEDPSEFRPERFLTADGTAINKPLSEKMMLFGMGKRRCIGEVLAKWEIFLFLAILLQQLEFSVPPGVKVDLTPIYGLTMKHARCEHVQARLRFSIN

CYP1A1 versus CYP1B1 = test: Selectivity index, ratio of IC50 for inhibition of recombinant human CYP1A1 to IC50 for inhibition of recombinant human CYP1B1; settings: recombinant human CYP1A1 and recombinant human CYP1B1
CYP1A2 versus CYP1B1 = test: Selectivity index, ratio of IC50 for inhibition of recombinant human CYP1A2 to IC50 for inhibition of recombinant human CYP1B1; settings: recombinant human CYP1A2 and recombinant human CYP1B1
A549 [4] = test: Inhibition of DMBA induced taxol resistance in human A549 cells; type: functional, cell-based; settings: dose 2.5-10 µM
Cytochrome P450 1B1 [5] = molecular target: T2, Cytochrome P450 1B1; test: Inhibition of human CYP1B1; type: ADME
A549/TR = test: Reversal of taxol resistance in human A549/Taxol cells assessed as increase in Rho123 accumulation at 5 uM incubated for 20 mins by multimode plate reader analysis; type: functional, cell-based
Cytochrome P450 1A1 [6] = molecular target: T3, Cytochrome P450 1A1; test: Inhibition of CYP1A1 (unknown origin) assessed as inhibition constant; type: ADME
Cytochrome P450 1A1 [7] = molecular target: T3, Cytochrome P450 1A1; test: Inhibition of CYP1A1 (unknown origin); type: ADME
Cytochrome P450 1B1 [8] = molecular target: T2, Cytochrome P450 1B1; test: Inhibition of CYP1B1 (unknown origin); type: ADME
Cytochrome P450 1A2 [9] = molecular target: T4, Cytochrome P450 1A2; test: Inhibition of CYP1A2 (unknown origin); type: ADME
A549 [10] = test: Antiproliferative activity against human A549 cells assessed as reduction in cell viability at 20 nM by MTT assay; type: functional, cell-based
A549 [11] = test: Antiproliferative activity against human A549 cells assessed as reduction in cell viability at 10 nM by MTT assay; type: functional, cell-based
A549 [12] = test: Antiproliferative activity against human A549 cells assessed as reduction in cell viability at 20 nM in presence of DMBA by MTT assay; type: functional, cell-based

inhibition at 0.5 h, 0.1 µM (CYP1B1)	IC50 (Cytochrome P450 1B1 [1])	IC50 (Cytochrome P450 1A1 [2])	IC50 (Cytochrome P450 1A2 [3])	SMILES	selectivity ratio (CYP1A1 versus CYP1B1)	selectivity ratio (CYP1A2 versus CYP1B1)	further results
100%	0.00745 µM	0.482 µM	0.483 µM	Clc1cc(Nc2nc(-c3nccs3)cs2)cc(Cl)c1Cl	64.7	64.8	–
–	–	–	–	Fc1ccccc1-c1csc(-c2csc(Nc3cc(Cl)cc(Cl)c3)n2)n1	–	–	inhibition (A549 [4]): Dose-Dependent Effect
–	–	–	–	Cc1cc(O)c2c(c1)C(=O)c1cc(O)cc(O)c1C2=O [EMODIN]	–	–	IC50 (Cytochrome P450 1B1 [5]): 3.73 µM
–	–	–	–	COc1ccc(CCN(C)CCCC(C#N)(c2ccc(OC)c(OC)c2)C(C)C)cc1OC (stereo not drawn)	–	–	Activity (A549/TR): Active
90%	0.00631 µM	0.586 µM	0.119 µM	Clc1ccc(Nc2nc(-c3nccs3)cs2)cc1	92.9	18.8	–
–	–	–	–	CCC/C(C=C(C)C)=C\COc1c2occc2c(C)c2ccc(=O)oc12	–	–	Ki (Cytochrome P450 1A1 [6]): 7.17 µM
90.7%	0.000121 µM	0.0439 µM	0.089 µM	COc1cc(Nc2nc(-c3nccs3)cs2)cc(OC)c1	363	733	–
87.7%	0.00788 µM	0.994 µM	1.86 µM	c1csc(-c2csc(Nc3ccc(N4CCOCC4)cc3)n2)n1	126	236	–
–	–	–	–	Nc1ccc2[nH]c3c(c2c1)CCn1c-3nc2ccccc2c1=O	–	–	IC50 (Cytochrome P450 1A1 [7]): 2.58 µM; IC50 (Cytochrome P450 1B1 [8]): 0.09 µM; IC50 (Cytochrome P450 1A2 [9]): 2.58 µM
–	0.0776 µM	0.271 µM	0.916 µM	C#CCOc1ccccc1-c1csc(-c2csc(Nc3cc(OC)cc(OC)c3)n2)n1	3.49	11.8	–
–	0.0116 µM	0.334 µM	2.86 µM	c1ccc(-c2csc(-c3csc(Nc4ccc(N5CCOCC5)cc4)n3)n2)cc1	28.9	247	–
97.2%	0.00176 µM	0.178 µM	0.0557 µM	Clc1cc(Cl)cc(Nc2nc(-c3nccs3)cs2)c1	101	31.5	–
–	1.61 µM	0.169 µM	1.56 µM	Fc1ccc(-c2csc(-c3csc(Nc4ccc(N5CCOCC5)cc4)n3)n2)cc1	0.1	0.97	–
97.6%	0.009 µM	0.093 µM	0.0785 µM	c1csc(-c2csc(Nc3ccc4c(c3)OCO4)n2)n1	10.3	8.71	–
–	0.0733 µM	0.105 µM	0.23 µM	Cc1sc(-c2csc(Nc3cccc(F)c3)n2)nc1-c1ccncc1	1.43	3.14	–
–	0.0222 µM	0.125 µM	1.04 µM	C#CCOc1ccccc1-c1csc(-c2csc(Nc3cccc(F)c3)n2)n1	5.64	46.8	–
–	0.155 µM	0.153 µM	3.45 µM	CCc1sc(-c2csc(Nc3ccc(N4CCOCC4)cc3)n2)nc1-c1ccncc1	0.99	22.3	–
–	0.00807 µM	0.323 µM	1.25 µM	COc1cc(Nc2nc(-c3nc(-c4ccccc4Cl)cs3)cs2)cc(OC)c1	40	155	–
–	0.0144 µM	1.02 µM	2.34 µM	Clc1cc(Cl)cc(Nc2nc(-c3nc(-c4ccncc4)cs3)cs2)c1	70.4	162	–
99.7%	0.00496 µM	0.0704 µM	0.0485 µM	c1cn(Cc2ccc(Nc3nc(-c4nccs4)cs3)cc2)cn1	14.1	9.7	–
92%	0.00909 µM	0.166 µM	0.141 µM	c1csc(-c2csc(Nc3ccc(Cn4cncn4)cc3)n2)n1	18.2	15.4	–
–	0.0648 µM	0.388 µM	0.913 µM	COc1cc(Nc2nc(-c3nc(-c4ccccc4)c(C)s3)cs2)cc(OC)c1	5.98	14.1	–
–	0.0331 µM	0.387 µM	0.227 µM	Clc1cc(Cl)cc(Nc2nc(-c3nc(-c4cccnc4)cs3)cs2)c1	11.7	6.85	–
–	–	–	–	CC(=O)O[C@H]1C(=O)[C@@]2(C)[C@H]([C@H](OC(=O)c3ccccc3)[C@]3(O)C[C@H](OC(=O)[C@H](O)[C@@H](NC(=O)c4ccccc4)c4ccccc4)C(C)=C1C3(C)C)[C@]1(OC(C)=O)CO[C@@H]1C[C@@H]2O	–	–	Activity (A549 [10]): Active; Activity (A549 [11]): Active; Activity (A549 [12]): inactive
–	0.00867 µM	0.0466 µM	> 10 µM	Clc1ccccc1-c1csc(-c2csc(Nc3ccc(N4CCOCC4)cc3)n2)n1	5.37	–	inhibition (A549 [4]): Dose-Dependent Effect
